Experimental data from PubChem BioAssay AID1963972 (Molecular Pharmacology Branch, DTP, NCI, 2024).
Where “and” joins values, the source holds several entries; their conditions need not be identical. Equal entries are not always repeated. Each block holds one molecule with its values, some of them ahead of it.

System: 945468-187-T-J2-PDC spheroids viability
Assay: Anticancer human tumor 945468-187-T-J2-PDC patient-derived rectal carcinoma cell line growth inhibition [PI3K]
Conditions: spheroids with HUVEC and MSC; for viability, T/C: stronger effect = lower value
How it was run: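 Targeted small molecules plus PI3K inhibitors, half-log dose series from Cmax (default top 10 microM), were applied to heterotypic spheroids of cancer cells with HUVEC and MSCs. Viability indicated growth inhibition.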

[1] = curve of first compound, second compound 0.0316 µM
[2] = curve of first compound, second compound 0.1 µM
[3] = curve of first compound, second compound 0.316 µM
[4] = curve of first compound, second compound 1 µM
[5] = curve of first compound, second compound 3.16 µM
[6] = curve of first compound, second compound 10 µM
[7] = second compound 0.0316 µM, first compound 0.0316 µM
[8] = second compound 0.0316 µM, first compound 0.1 µM
[9] = second compound 0.0316 µM, first compound 0.316 µM
[10] = second compound 0.0316 µM, first compound 1 µM
[11] = second compound 0.0316 µM, first compound 3.16 µM
[12] = second compound 0.0316 µM, first compound 10 µM
[13] = second compound 0.1 µM, first compound 0.0316 µM
[14] = second compound 0.1 µM, first compound 0.1 µM
[15] = second compound 0.1 µM, first compound 0.316 µM
[16] = second compound 0.1 µM, first compound 1 µM
[17] = second compound 0.1 µM, first compound 3.16 µM
[18] = second compound 0.1 µM, first compound 10 µM
[19] = second compound 0.316 µM, first compound 0.0316 µM
[20] = second compound 0.316 µM, first compound 0.1 µM
[21] = second compound 0.316 µM, first compound 0.316 µM
[22] = second compound 0.316 µM, first compound 1 µM
[23] = second compound 0.316 µM, first compound 3.16 µM
[24] = second compound 0.316 µM, first compound 10 µM
[25] = second compound 1 µM, first compound 0.0316 µM
[26] = second compound 1 µM, first compound 0.1 µM
[27] = second compound 1 µM, first compound 0.316 µM
[28] = second compound 1 µM, first compound 1 µM
[29] = second compound 1 µM, first compound 3.16 µM
[30] = second compound 1 µM, first compound 10 µM
[31] = second compound 3.16 µM, first compound 0.0316 µM
[32] = second compound 3.16 µM, first compound 0.1 µM
[33] = second compound 3.16 µM, first compound 0.316 µM
[34] = second compound 3.16 µM, first compound 1 µM
[35] = second compound 3.16 µM, first compound 3.16 µM
[36] = second compound 3.16 µM, first compound 10 µM
[37] = second compound 10 µM, first compound 0.0316 µM
[38] = second compound 10 µM, first compound 0.1 µM
[39] = second compound 10 µM, first compound 0.316 µM
[40] = second compound 10 µM, first compound 1 µM
[41] = second compound 10 µM, first compound 3.16 µM
[42] = second compound 10 µM, first compound 10 µM
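Note: spheroids exposed to compounds for seven days before reading.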

- IC50 [1]: > 3 µM
- IC50 [2]: > 3 µM
- IC50 [3]: > 3 µM
- IC50 [4]: > 3 µM
- IC50 [5]: > 3 µM
- IC50 [6]: > 3 µM
Structure (SMILES): Cn1cnc2c(F)c(Nc3ccc(Br)cc3Cl)c(C(=O)NOCCO)cc21 + CC(Nc1ncnc2nc[nH]c12)c1cc2cccc(Cl)c2c(=O)n1-c1ccccc1
- viability, T/C (second compound 0.0316 µM, first compound 0.00949 µM): 100%
- viability, T/C (second compound 0.0316 µM, first compound 0.03 µM): 103%
- viability, T/C (second compound 0.0316 µM, first compound 0.0949 µM): 84.1%
- viability, T/C (second compound 0.0316 µM, first compound 0.3 µM): 92.8%
- viability, T/C (second compound 0.0316 µM, first compound 0.949 µM): 92%
- viability, T/C (second compound 0.0316 µM, first compound 3 µM): 73.7%
- viability, T/C (second compound 0.1 µM, first compound 0.00949 µM): 99.3%
- viability, T/C (second compound 0.1 µM, first compound 0.03 µM): 82.1%
- viability, T/C (second compound 0.1 µM, first compound 0.0949 µM): 85.1%
- viability, T/C (second compound 0.1 µM, first compound 0.3 µM): 93%
- viability, T/C (second compound 0.1 µM, first compound 0.949 µM): 83.1%
- viability, T/C (second compound 0.1 µM, first compound 3 µM): 74%
- viability, T/C (second compound 0.316 µM, first compound 0.00949 µM): 111%
- viability, T/C (second compound 0.316 µM, first compound 0.03 µM): 90.8%
- viability, T/C (second compound 0.316 µM, first compound 0.0949 µM): 92.4%
- viability, T/C (second compound 0.316 µM, first compound 0.3 µM): 91.8%
- viability, T/C (second compound 0.316 µM, first compound 0.949 µM): 81.5%
- viability, T/C (second compound 0.316 µM, first compound 3 µM): 80.3%
- viability, T/C (second compound 1 µM, first compound 0.00949 µM): 122%
- viability, T/C (second compound 1 µM, first compound 0.03 µM): 106%
- viability, T/C (second compound 1 µM, first compound 0.0949 µM): 79.7%
- viability, T/C (second compound 1 µM, first compound 0.3 µM): 88.3%
- viability, T/C (second compound 1 µM, first compound 0.949 µM): 81.8%
- viability, T/C (second compound 1 µM, first compound 3 µM): 82.7%
- viability, T/C (second compound 3.16 µM, first compound 0.00949 µM): 81.6%
- viability, T/C (second compound 3.16 µM, first compound 0.03 µM): 94.3%
- viability, T/C (second compound 3.16 µM, first compound 0.0949 µM): 104%
- viability, T/C (second compound 3.16 µM, first compound 0.3 µM): 107%
- viability, T/C (second compound 3.16 µM, first compound 0.949 µM): 81.7%
- viability, T/C (second compound 3.16 µM, first compound 3 µM): 79.9%
- viability, T/C (second compound 10 µM, first compound 0.00949 µM): 92.7%
- viability, T/C (second compound 10 µM, first compound 0.03 µM): 94.1%
- viability, T/C (second compound 10 µM, first compound 0.0949 µM): 97.9%
- viability, T/C (second compound 10 µM, first compound 0.3 µM): 91.5%
- viability, T/C (second compound 10 µM, first compound 0.949 µM): 83.8%
- viability, T/C (second compound 10 µM, first compound 3 µM): 72%

- IC50 (curve of compound): > 0.1 µM
Structure (SMILES): Cn1ncnc1[C@H]1c2n[nH]c(=O)c3cc(F)cc(c23)N[C@@H]1c1ccc(F)cc1
- viability, T/C (compound 0.000316 µM): 105% [middle of 4 runs]
- viability, T/C (compound 0.00316 µM): 93.9% [middle of 4 runs]
- viability, T/C (compound 0.01 µM): 88.9% [middle of 4 runs]
- viability, T/C (compound 0.0316 µM): 110% (2×) and 104% and 93.3%
- viability, T/C (compound 0.1 µM): 104% [middle of 4 runs]

- IC50 [1]: > 10 µM
- IC50 [2]: > 10 µM
- IC50 [3]: > 10 µM
- IC50 [4]: > 10 µM
- IC50 [5]: > 10 µM
- IC50 [6]: > 10 µM
Structure (SMILES): CC(Cn1ccc(-c2ccc(C#N)c(Cl)c2)n1)NC(=O)c1cc(C(C)O)[nH]n1 (configuration not stated) + Cc1nc(NC(=O)N2CCCC2C(N)=O)sc1-c1ccnc(C(C)(C)C(F)(F)F)c1
- viability, T/C [7]: 118%
- viability, T/C [8]: 94.1%
- viability, T/C [9]: 115%
- viability, T/C [10]: 96.3%
- viability, T/C [11]: 90.7%
- viability, T/C [12]: 82.5%
- viability, T/C [13]: 90.7%
- viability, T/C [14]: 81%
- viability, T/C [15]: 90.8%
- viability, T/C [16]: 100%
- viability, T/C [17]: 104%
- viability, T/C [18]: 82.1%
- viability, T/C [19]: 100%
- viability, T/C [20]: 95.6%
- viability, T/C [21]: 109%
- viability, T/C [22]: 80%
- viability, T/C [23]: 89.6%
- viability, T/C [24]: 83.4%
- viability, T/C [25]: 95.4%
- viability, T/C [26]: 84.9%
- viability, T/C [27]: 79.4%
- viability, T/C [28]: 101%
- viability, T/C [29]: 79.3%
- viability, T/C [30]: 84.7%
- viability, T/C [31]: 81%
- viability, T/C [32]: 84.2%
- viability, T/C [33]: 78.4%
- viability, T/C [34]: 83.5%
- viability, T/C [35]: 71.7%
- viability, T/C [36]: 74.9%
- viability, T/C [37]: 76.9%
- viability, T/C [38]: 76.3%
- viability, T/C [39]: 73.3%
- viability, T/C [40]: 68%
- viability, T/C [41]: 69%
- viability, T/C [42]: 61.5%

- IC50 [1]: 2.65 µM
- IC50 [2]: 2.14 µM
- IC50 [3]: > 10 µM
- IC50 [4]: > 10 µM
- IC50 [5]: 1.98 µM
- IC50 [6]: 2.32 µM
Structure (SMILES): CC1(C)CCC(Nc2ncc(C(F)(F)F)c(-c3c[nH]c4c(P(C)(C)=O)c(C#N)ccc34)n2)CN1 (configuration not stated) + Cc1nc(NC(=O)N2CCCC2C(N)=O)sc1-c1ccnc(C(C)(C)C(F)(F)F)c1
- viability, T/C [7]: 95.8%
- viability, T/C [8]: 104%
- viability, T/C [9]: 78.4%
- viability, T/C [10]: 62.9%
- viability, T/C [11]: 47%
- viability, T/C [12]: 45.3%
- viability, T/C [13]: 87%
- viability, T/C [14]: 85.4%
- viability, T/C [15]: 93.2%
- viability, T/C [16]: 55.2%
- viability, T/C [17]: 53.1%
- viability, T/C [18]: 41.6%
- viability, T/C [19]: 87.8%
- viability, T/C [20]: 130%
- viability, T/C [21]: 80.3%
- viability, T/C [22]: 59.2%
- viability, T/C [23]: 48.1%
- viability, T/C [24]: 45.5%
- viability, T/C [25]: 89.8%
- viability, T/C [26]: 99.3%
- viability, T/C [27]: 91.4%
- viability, T/C [28]: 53.8%
- viability, T/C [29]: 48.5%
- viability, T/C [30]: 55.3%
- viability, T/C [31]: 99.8%
- viability, T/C [32]: 106%
- viability, T/C [33]: 73.7%
- viability, T/C [34]: 57%
- viability, T/C [35]: 50.1%
- viability, T/C [36]: 43.1%
- viability, T/C [37]: 81.8%
- viability, T/C [38]: 77.5%
- viability, T/C [39]: 48.9%
- viability, T/C [40]: 53.7%
- viability, T/C [41]: 60.2%
- viability, T/C [42]: 39.4%
